“Also recorded” adds a separate entry of the source.
System: GFP-labelled glioma cells in human GBM mouse xenograft slice
Assay: Drug testing on human GBM xenograft slices in microfluidic apparatus
Assay type: cell-based
Details: 1 mM TMZ in culture medium, 48 hours selective exposure, 400 μm-thick slice, epifluorescence and confocal imaging
From the text: Two hundred thousand (200,000) viable glioma cells labelled by lentiviral GFP expression were orthotopically injected in the brain of an immunodeficient mouse following proper protocols. After approximately four weeks of tumor growth, the mouse was sacrificed and the mouse brain was then transported in ice cold culture medium prior to slicing. A vibratome tissue slicer was used to produce 400 μm-thick slices from a GBM xenograft mouse brain (the tissue was submerged in oxygenated ACSF during the slicing process). Then the slices were quickly transferred onto the PTFE membrane well inserts with pre-warmed culture medium and placed in an incubator. These slices were cultured for at least 24 hours (recovery) before being used for drug testing.
To proceed with drug testing, the GBM slice was transferred from the culture membrane well insert to the microfluidic apparatus by cutting the PTFE membrane out from the well insert and then placing it onto the plurality of open microchannels of the apparatus. […] Then the wells corresponding to the determined drug delivery channels were replaced with drug solution (1 mM of TMZ in culture medium; TMZ was chosen due to its clinical relevance to GBM), and then the apparatus was connected to a syringe pump with the total flow rate of 300 μL per hour in an incubator to initiate the drug delivery. […]

## Cn1nnc2c(C(N)=O)ncn2c1=O [TMZ]
  cell death (loss of GFP-labelled glioma cells) at drug exposure regions: selectivity of cell death in the TMZ region; also recorded: loss of GFP-labelled glioma cells
